Structures can show the parent of a compound that is named as a salt. Where two headings read alike, the source gives them in different places. Some results are limits rather than exact numbers.

We go through ten compounds from patent US20150141435A1, “2-PYRIDONE ANTIMICROBIAL COMPOSITIONS” (Emergent BioSolutions, priority 2010, published 2015).

What all share (assay type): cell-based
In assay [1] the test system is E. faecium ATCC 19434. Kind of assay: MIC, CLSI broth microdilution (Table 1). The following applies: Enterococcus faecium. Background: Dilution methods test growth across graded concentrations, often in twofold steps.
Assay [2] concerns S. aureus ATCC 25923. Kind of assay: MIC, CLSI broth microdilution (Table 1). As to conditions: Staphylococcus aureus.
Assay [3] has as its system S. aureus ATCC 43300 (MRSA, FQ-S). Kind of assay: MIC, CLSI broth microdilution (Table 1). As to conditions: Staphylococcus aureus, read-out: MIC S. aureus ATCC 43300 (MRSA, FQ-S).
Assay [4] deals with E. coli ATCC 25922. In words: MIC, CLSI broth microdilution (Table 2). As to conditions: Escherichia coli.
In assay [5] the test system is A. baumannii ATCC 19606. In words: MIC, CLSI broth microdilution (Table 2). The following applies: Acinetobacter baumannii.
For assay [6], the system named is S. aureus BAA-1720 (MRSA, FQ-R). Kind of assay: MIC, CLSI broth microdilution (Table 1). The following applies: Staphylococcus aureus, read-out: MIC S. aureus BAA-1720 (MRSA, FQ-R).
Assay [7] concerns E. faecalis ATCC 29212. In words: MIC, CLSI broth microdilution (Table 1). The following applies: Enterococcus faecalis.
For assay [8], the system named is H. influenzae ATCC 49247. Kind of assay: MIC, CLSI broth microdilution (Table 2). The following applies: Haemophilus influenzae.
Assay [9] has as its system S. pneumonia ATCC 49619. In words: MIC, CLSI broth microdilution (Table 1). As to conditions: Streptococcus pneumoniae.
The test system of assay [10] is K. pneumoniae ATCC 33495. In words: MIC, CLSI broth microdilution (Table 2). The following applies: Klebsiella pneumoniae.
Assay [11] has as its system S. maltophilia ATCC 17677. Kind of assay: MIC, CLSI broth microdilution (Table 2). As to conditions: Stenotrophomonas maltophilia.
Assay [12] concerns P. aeruginosa ATCC 27853. In words: MIC, CLSI broth microdilution (Table 2). As to conditions: Pseudomonas aeruginosa.
Setting [13] is: ATCC19434, Gram positive, MHB, 37° C., 16-20 hours, read-out: MIC E. faecium ATCC 19434.
Where [14] appears, read: ATCC25923, Gram positive, MHB, 37° C., 16-20 hours, read-out: MIC S. aureus ATCC 25923.
The mark [15] stands for this setting: Gram positive, MHB, 37° C., 16-20 hours.
[16] abbreviates: ATCC25922, Gram negative, MHB, 37° C., 16-20 hours, read-out: MIC E. coli ATCC 25922.
[17] abbreviates: ATCC19606, Gram negative, MHB, 37° C., 16-20 hours, read-out: MIC A. baumannii B. ATCC 19606.
The mark [18] stands for this setting: ATCC29212, Gram positive, MHB, 37° C., 16-20 hours, read-out: MIC E. faecalis ATCC 29212.
Setting [19] is: ATCC49247, Gram negative, MHB, 37° C., 16-20 hours, read-out: MIC H. influenzae ATCC 49247.
Where [20] appears, read: ATCC49619, Gram positive, MHB, 37° C., 16-20 hours, read-out: MIC S. pneumonia ATCC 49619.
Setting [21] is: ATCC33495, Gram negative, MHB, 37° C., 16-20 hours, read-out: MIC K. pneumoniae ATCC 33495.
[22] abbreviates: ATCC17677, Gram negative, MHB, 37° C., 16-20 hours, read-out: MIC S. maltophilia ATCC 17677.
Where [23] appears, read: ATCC27853, Gram negative, MHB, 37° C., 16-20 hours, read-out: MIC P. aeruginosa ATCC 27853.

Consider `Cc1c(-c2cc(F)c(N)c(F)c2)ccn2c(=O)c(C(=O)O)cc(C3CC3)c12` [Example 39 K salt, 8-(4-amino-3,5-difluoro-phenyl)-1-cyclopropyl-9-methyl-4-oxo-4H-quinolizine-3-carboxylic acid], for which the MIC in assay [1] (ATCC19434, read-out: MIC E. faecium ATCC 19434) was 0.25 µg/mL; in [2] (ATCC25923, read-out: MIC S. aureus ATCC 25923) it was at most 0.004 µg/mL; in [3], at most 0.004 µg/mL; in assay [4] (ATCC25922, read-out: MIC E. coli ATCC 25922), 0.064 µg/mL; in assay [5] (ATCC19606, read-out: MIC A. baumannii B. ATCC 19606), 0.064 µg/mL; in assay [6], 0.125 µg/mL. In addition, the MIC was 0.016 µg/mL in assay [7] (ATCC29212, read-out: MIC E. faecalis ATCC 29212); at most 4 ng/mL in assay [8] (ATCC49247, read-out: MIC H. influenzae ATCC 49247); 0.032 µg/mL in assay [9] (ATCC49619, read-out: MIC S. pneumonia ATCC 49619); 0.125 µg/mL in assay [10] (ATCC33495, read-out: MIC K. pneumoniae ATCC 33495); 0.064 µg/mL in assay [11] (ATCC17677, read-out: MIC S. maltophilia ATCC 17677); 2 µg/mL in assay [12] (ATCC27853, read-out: MIC P. aeruginosa ATCC 27853).

`Cc1cc(-c2ccn3c(=O)c(C(=O)O)cc(C4CC4)c3c2C)ccc1N` [Example 19 K salt, 8-(4-amino-3-methyl-phenyl)-1-cyclopropyl-9-methyl-4-oxo-4H-quinolizine-3-carboxylic acid]: the MIC in assay [1] (setting [13]) was 1 µg/mL; in assay [2] (setting [14]), 0.016 µg/mL; in [3] (setting [15]) it was 0.016 µg/mL; in assay [4] (setting [16]), 0.064 to 0.125 µg/mL; in assay [5] (setting [17]), 0.125 to 0.25 µg/mL; in assay [6] (setting [15]), 0.25 µg/mL. Further, the MIC in [7] (setting [18]) was 0.032 µg/mL; in assay [8] (setting [19]), 8 ng/mL; in [9] (setting [20]), 0.064 to 0.125 µg/mL; in assay [10] (setting [21]), 0.25 µg/mL; in assay [11] (setting [22]) it was 0.25 µg/mL; in assay [12] (setting [23]), 2 µg/mL.

`Cc1c(-c2cccc(N)c2)c(F)cn2c(=O)c(C(=O)O)cc(C3CC3)c12` [Example 4 K salt, 8-(3-amino-phenyl)-1-cyclopropyl-7-fluoro-9-methyl-4-oxo-4H-quinolizine-3-carboxylic acid]: the MIC in [1] (setting [13]) is 1 µg/mL; in assay [2] (setting [14]), 0.016 µg/mL; in [3] (setting [15]) it was 0.016 µg/mL; in assay [4] (setting [16]), 0.125 µg/mL; in assay [5] (setting [17]) it was 0.125 µg/mL; in [6] (setting [15]), 0.25 µg/mL. Besides, the MIC in assay [7] (setting [18]) was determined as 0.032 µg/mL; in [8] (setting [19]), 8 ng/mL; in assay [9] (setting [20]), 0.125 µg/mL; in [10] (setting [21]) it was 0.25 µg/mL; in assay [11] (setting [22]), 0.25 µg/mL; in assay [12] (setting [23]), 8 µg/mL.

`Cc1c(N2CC[C@H](N)C2)c(F)cn2c(=O)c(C(=O)O)cc(C3CC3)c12` [Example 26 K salt, 8-[(3S)-3-aminopyrrolidin-1-yl]-1-cyclopropyl-7-fluoro-9-methyl-4-oxo-quinolizine-3-carboxylic acid]: the MIC was 1 µg/mL in assay [1] (setting [13]); 0.032 µg/mL in assay [2] (setting [14]); 0.032 µg/mL in [3] (setting [15]); at most 0.004 µg/mL in assay [4] (setting [16]); 0.064 µg/mL in [5] (setting [17]); 1 µg/mL in [6] (setting [15]). For the same compound, the MIC in assay [7] (setting [18]) is 0.125 µg/mL; in [8] (setting [19]), at most 4 ng/mL; in [9] (setting [20]) it was 0.064 µg/mL; in [10] (setting [21]) it was 0.016 µg/mL; in assay [11] (setting [22]), 0.064 µg/mL; in assay [12] (setting [23]), 0.125 µg/mL.

`Cc1c(-c2ccc(C(N)=O)cc2)ccn2c(=O)c(C(=O)O)cc(C3CC3)c12` [Example 36 K salt, 8-(4-carbamoyl-phenyl)-1-cyclopropyl-9-methyl-4-oxo-4H-quinolizine-3-carboxylic acid]: the MIC in assay [1] (setting [13]) is 0.5 µg/mL; in assay [2] (setting [14]) it was 0.016 to 0.032 µg/mL; in assay [3] (setting [15]), 0.016 µg/mL; in [4] (setting [16]) it was 0.125 µg/mL; in assay [5] (setting [17]), 0.5 µg/mL; in assay [6] (setting [15]), 0.5 µg/mL. In addition, the MIC in assay [7] (setting [18]) came out at 0.032 µg/mL; in [8] (setting [19]), 8 ng/mL; in assay [9] (setting [20]), 0.064 µg/mL; in assay [10] (setting [21]), 0.25 µg/mL; in assay [11] (setting [22]) it was 0.125 µg/mL; in [12] (setting [23]) it was 8 µg/mL.

For the compound `COc1cc(-c2ccn3c(=O)c(C(=O)O)cc(C4CC4)c3c2C)ccc1N` [Example 12 K salt, 8-(4-amino-3-methoxy-phenyl)-1-cyclopropyl-9-methyl-4-oxo-4H-quinolizine-3-carboxylic acid], the MIC in assay [1] (setting [13]) is 1 µg/mL; in assay [2] (setting [14]), 0.016 to 0.032 µg/mL; in assay [3] (setting [15]) it was 0.016 µg/mL; in assay [4] (setting [16]), 0.25 µg/mL; in assay [5] (setting [17]) it was 0.25 to 0.5 µg/mL; in assay [6] (setting [15]), 0.5 to 1 µg/mL. For the same compound, the MIC in assay [7] (setting [18]) was 0.064 µg/mL; in [8] (setting [19]), 32 ng/mL; in assay [9] (setting [20]) it was 0.25 µg/mL; in [10] (setting [21]) it was 0.5 µg/mL; in assay [11] (setting [22]), 0.5 µg/mL; in assay [12] (setting [23]), 8 µg/mL.

On to `Cc1c(-c2cccc(F)c2)ccn2c(=O)c(C(=O)O)cc(C3CC3)c12` [Example 10 K salt, 1-cyclopropyl-8-(3-fluoro-phenyl)-9-methyl-4-oxo-4H-quinolizine-3-carboxylic acid], for which the MIC is 0.5 µg/mL in [1] (setting [13]); 0.008 µg/mL in [2] (setting [14]); 0.008 µg/mL in assay [3] (setting [15]); 0.125 µg/mL in assay [4] (setting [16]); 0.25 µg/mL in [5] (setting [17]); 0.5 µg/mL in [6] (setting [15]). Further, the MIC in assay [7] (setting [18]) is 0.032 µg/mL; in [8] (setting [19]) it was 8 ng/mL; in [9] (setting [20]), 0.125 µg/mL; in assay [10] (setting [21]), 0.25 µg/mL; in [11] (setting [22]), 0.25 to 0.5 µg/mL; in assay [12] (setting [23]), 2 µg/mL.

Consider `CNc1ccc(-c2ccn3c(=O)c(C(=O)O)cc(C4CC4)c3c2C)cc1` [Example 15 K salt, 1-cyclopropyl-9-methyl-8-(4-(methylamino)-phenyl)-4-oxo-4H-quinolizine-3-carboxylic acid], for which the MIC in assay [1] (setting [13]) was over 8 µg/mL; in [2] (setting [14]) it was 0.016 µg/mL; in assay [3] (setting [15]) it was 0.016 µg/mL; in assay [4] (setting [16]) it was 0.125 µg/mL; in assay [5] (setting [17]), 0.5 to 1 µg/mL; in assay [6] (setting [15]) it was 1 µg/mL. The MIC was 0.032 µg/mL in [7] (setting [18]); 16 to 32 ng/mL in assay [8] (setting [19]); 0.064 µg/mL in assay [9] (setting [20]); 1 µg/mL in assay [10] (setting [21]); 0.5 µg/mL in assay [11] (setting [22]); over 8 µg/mL in assay [12] (setting [23]).

For the compound `Cc1c(-c2cccnc2)ccn2c(=O)c(C(=O)O)cc(C3CC3)c12` [Example 17 K salt, 1-cyclopropyl-9-methyl-4-oxo-8-(pyridin-3-yl)-4H-quinolizine-3-carboxylic acid], the MIC is 1 µg/mL in assay [1] (setting [13]); 0.016 µg/mL in assay [2] (setting [14]); 0.016 µg/mL in [3] (setting [15]); 0.064 µg/mL in [4] (setting [16]); 0.125 to 0.25 µg/mL in assay [5] (setting [17]); 1 µg/mL in [6] (setting [15]). Also, the MIC is 0.064 µg/mL in [7] (setting [18]); at most 4 ng/mL in [8] (setting [19]); 0.125 µg/mL in assay [9] (setting [20]); 0.125 µg/mL in assay [10] (setting [21]); 0.25 µg/mL in assay [11] (setting [22]); 2 to 4 µg/mL in assay [12] (setting [23]).

In the case of `Cc1c(-c2cc[nH]c2)ccn2c(=O)c(C(=O)O)cc(C3CC3)c12` [Example 43 K salt, 1-cyclopropyl-9-methyl-4-oxo-8-(1H-pyrrol-3-yl)-4H-quinolizine-3-carboxylic acid], the MIC in [1] (setting [13]) is 4 µg/mL; in assay [2] (setting [14]) it was 0.016 to 0.032 µg/mL; in assay [3] (setting [15]), 0.032 µg/mL; in assay [4] (setting [16]) it was 0.064 to 0.125 µg/mL; in assay [5] (setting [17]), 0.25 µg/mL; in assay [6] (setting [15]) it was 2 µg/mL. In addition, the MIC turned out to be 0.125 µg/mL in assay [7] (setting [18]); 8 ng/mL in assay [8] (setting [19]); 0.5 µg/mL in assay [9] (setting [20]); 0.125 µg/mL in assay [10] (setting [21]); 0.25 µg/mL in assay [11] (setting [22]); 4 µg/mL in assay [12] (setting [23]).
